# Assay results as given in patent US10029017B2, “Pretargeted activatable cell penetrating peptide with intracellularly releasable prodrug” (The Regents of the University of California, priority 2013, dated 2018).
# Non-standard residues stand in square brackets, D forms with d. Residues, ends and D or L forms follow the SMILES beside them. *: point of attachment. Dolaproine = CO[C@@H]([C@@H]1CCCN1)[C@@H](C)C(=O)O; Dil = CC[C@H](C)[C@H](NC)[C@@H](CC(=O)O)OC; X1 = C[C@@H](N*)[C@@H](O)c1ccccc1; NMeV = CN[C@H](C(=O)O)C(C)C
# System: MDA-MB-231 orthotopic xenografts
# Experiment: chemotherapy of MDA-MB-231 orthotopic xenografts: tumor volume, regression, survival
# Assay type: in vivo, mice
# Settings: 0.32 mg/kg equivalents of MMAE, equimolar free MMAE
# Excerpt: A) Tumor growth curve obtained from MDA-MB-231 bilateral tumor bearing mice that were either intravenously injected with 6.5 nanomoles of MMAE (red line), cRAD-PEG6-MMAE (green line), cRGD-MMP-MMAE (dark blue) or no injection (no treatment, light blue).
# Monomethyl auristatin E (MMAE), a potent chemotherapeutic inhibitor of tubulin polymerization, was conjugated to an ACPP via a peptide linker, Val-Cit-(p-amido)benzyloxycarbonyl, which is cleavable by cathepsin B, an endolysosomal protease. Mice harboring MDA-MB-231 orthotopic xenografts were dosed with cRGD-ACPP-MMAE at 0.2 mg/kg equivalents MMAE (6.5 nanomoles peptide) every three days for a total of four doses and tumor volumes were measured at regular intervals. […] When the dose was increased to 0.32 mg/kg equivalents of MMAE, the dual targeted peptide caused 4 out of 8 tumors to regress completely, compared to 2 out of 8 for equimolar free MMAE. The ACPPs caused no weight loss or gross toxicity. […] Animal weights are illustrated in FIGS. 7, 9, and 11.
structure (smiles),measurement,value
"CC[C@H](C)[C@@H]([C@@H](CC(=O)N1CCC[C@H]1[C@H](OC)[C@@H](C)C(=O)N[C@H](C)[C@@H](O)c1ccccc1)OC)N(C)C(=O)[C@@H](NC(=O)[C@@H](NC)C(C)C)C(C)C [MMAE, Monomethyl auristatin E] (H-[NMeV]V[Dil][Dolaproine]-X1)",tumors that regressed completely,2 out of 8
